Measured values: ChEMBL document CHEMBL2046397, “Design and synthesis of 5-(substituted benzylidene)thiazolidine-2,4-dione derivatives as novel tyrosinase inhibitors” (Eur J Med Chem, 2012)
pIC50: −log10 of the molar value. Calls of active or inactive are those of the source. The calls are words filed in the database; no cut-off is given here.

Experiments:
[1] = biological target: T1, Tyrosinase (Agaricus bisporus) (UniProt O42713); assay: Competitive inhibition of mushroom tyrosinase using L-tyrosine as substrate at 20 uM by Line-Weaver-Burk plot analysis
T1 sequence (whole entry): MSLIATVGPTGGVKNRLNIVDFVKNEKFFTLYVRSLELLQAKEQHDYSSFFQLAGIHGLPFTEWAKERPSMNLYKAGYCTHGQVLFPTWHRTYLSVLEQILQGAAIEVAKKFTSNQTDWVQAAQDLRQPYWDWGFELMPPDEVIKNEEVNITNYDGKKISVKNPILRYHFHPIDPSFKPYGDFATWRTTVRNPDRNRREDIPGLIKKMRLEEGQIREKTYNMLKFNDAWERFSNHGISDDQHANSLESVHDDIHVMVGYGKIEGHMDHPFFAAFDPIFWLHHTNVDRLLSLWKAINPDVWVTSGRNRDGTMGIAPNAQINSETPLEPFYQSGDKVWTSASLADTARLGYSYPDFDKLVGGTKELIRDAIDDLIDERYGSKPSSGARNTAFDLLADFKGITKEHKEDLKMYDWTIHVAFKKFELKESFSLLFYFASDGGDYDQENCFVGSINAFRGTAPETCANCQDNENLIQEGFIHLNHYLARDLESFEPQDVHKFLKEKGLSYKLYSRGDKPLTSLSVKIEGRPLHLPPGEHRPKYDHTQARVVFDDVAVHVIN

[2] = test system: B16; assay: Cytotoxicity against mouse B16 cells at 0.1 to 10 uM after 8 hrs by MTT assay; type: cell-based; conditions: b16, 8 h
[3] = biological target: T1, Tyrosinase (Agaricus bisporus); assay: Competitive inhibition of mushroom tyrosinase using L-tyrosine as substrate assessed increase in Km L-tyrosine by Line-Weaver-Burk plot analysis
[4] = biological target: T2, Tyrosinase (Mus musculus) (UniProt P11344); assay: Inhibition of MSHalpha-stimulated tyrosinase activity in mouse B16 cells using L-DOPA as substrate after 24 hrs by […]; type: cell-based
T2 sequence (whole entry): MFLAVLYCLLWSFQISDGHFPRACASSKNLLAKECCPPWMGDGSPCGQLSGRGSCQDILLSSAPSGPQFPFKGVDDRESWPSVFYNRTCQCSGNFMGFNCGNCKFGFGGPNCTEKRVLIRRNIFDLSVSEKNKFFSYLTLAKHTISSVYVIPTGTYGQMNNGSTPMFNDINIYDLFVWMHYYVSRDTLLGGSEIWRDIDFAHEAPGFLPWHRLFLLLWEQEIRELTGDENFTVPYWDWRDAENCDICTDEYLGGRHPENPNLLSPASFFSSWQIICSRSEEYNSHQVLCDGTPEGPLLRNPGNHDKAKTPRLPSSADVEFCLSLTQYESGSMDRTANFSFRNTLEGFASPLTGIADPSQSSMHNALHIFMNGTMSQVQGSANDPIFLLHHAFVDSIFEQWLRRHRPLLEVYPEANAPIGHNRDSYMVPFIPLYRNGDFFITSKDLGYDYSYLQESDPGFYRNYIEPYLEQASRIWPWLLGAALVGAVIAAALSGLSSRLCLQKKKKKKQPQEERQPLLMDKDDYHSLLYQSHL

[5] = biological target: T3, Tyrosinase (Agaricus bisporus, UniProt O42713); assay: Inhibition of mushroom tyrosinase activity using L-tyrosine as substrate after 30 mins by spectrophotometric analysis
T3 sequence (O42713 whole entry): T1 sequence (whole entry)

[6] = test system: B16; assay: Antimelanogenic activity in mouse B16 cells assessed as inhibition of alpha-MSH-induced melanin formation after 24 hrs by spectrophotometric assay; type: functional, cell-based
[7] = biological target: T1, Tyrosinase (Agaricus bisporus); assay: Competitive inhibition of mushroom tyrosinase using L-tyrosine as substrate at 1.25 uM by Line-Weaver-Burk plot analysis

Row | Structure (SMILES) | Kic [1] | Activity [2] | inhibition [3] | inhibition [4] | pIC50 [5] | inhibition [6] | Kic [7]
1 | O=C1NC(=O)/C(=C/c2ccc(O)cc2)S1 | 0.84 µM | Non-toxic | Active | Active | 4.87 | Dose-dependent effect | 3.74 ×10⁻⁷ M
2 | COc1ccc(/C=C2\SC(=O)NC2=O)cc1O | 1.38 µM | Non-toxic | Active | Active | 5.01 | Dose-dependent effect | 4.13 ×10⁻⁷ M
